Measured values reported in patent US20250034150A1, “BTK INHIBITORS” (BIOGEN MA INC., priority 2021, published 2025).
Counter-ions that a name gives are not always drawn.

Columns and labels:
[1] = biological target: T1, BTK (Homo sapiens, UniProt Q06187); assay: In Vitro BTK Kinase Assay: Btk-PolyGAT-LS Assay; assay type: biochemical; details: active BTK enzyme 0.25 nM, polyGAT 100 nM, 30 minutes, TRF readout; read-out: In Vitro BTK Kinase Assay IC50 Score
T1 construct: purchased Upstate 14-552
How it was run: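 IC50 values came from a four-parameter fit, with DMSO controls as 100% activity and EDTA controls as 0%. The signal was TR-FRET from a Tb-PY20 antibody binding fluorescein-polyGAT (100 nM) phosphorylated by 0.25 nM BTK. Kinase reactions used 10 μM ATP, a 4-fold compound titration, and ran 30 minutes before EDTA stop.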

[2] = system: CD69 expression on CD19+ B cells in human whole blood; assay: In Vitro whole blood CD69 Assay; assay type: cell-based; details: B-cell; human heparinized whole blood, anti-human IgD stimulation overnight, CD19+ B cells, flow cytometry; read-out: In Vitro HWB CD69 Assay IC50 Score
How it was run: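 Heparinized healthy-donor human whole blood was preincubated with compound (0.1% DMSO) for 30 min at 37 °C. Stimulation used 0.1 µg/mL anti-IgD-dextran or 20 µg/mL rabbit F(ab′)2 anti-IgD for 18–22 h at 37 °C. CD69 on gated CD19+ B cells was then measured by flow cytometry.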

T1 sequence (Q06187 whole entry): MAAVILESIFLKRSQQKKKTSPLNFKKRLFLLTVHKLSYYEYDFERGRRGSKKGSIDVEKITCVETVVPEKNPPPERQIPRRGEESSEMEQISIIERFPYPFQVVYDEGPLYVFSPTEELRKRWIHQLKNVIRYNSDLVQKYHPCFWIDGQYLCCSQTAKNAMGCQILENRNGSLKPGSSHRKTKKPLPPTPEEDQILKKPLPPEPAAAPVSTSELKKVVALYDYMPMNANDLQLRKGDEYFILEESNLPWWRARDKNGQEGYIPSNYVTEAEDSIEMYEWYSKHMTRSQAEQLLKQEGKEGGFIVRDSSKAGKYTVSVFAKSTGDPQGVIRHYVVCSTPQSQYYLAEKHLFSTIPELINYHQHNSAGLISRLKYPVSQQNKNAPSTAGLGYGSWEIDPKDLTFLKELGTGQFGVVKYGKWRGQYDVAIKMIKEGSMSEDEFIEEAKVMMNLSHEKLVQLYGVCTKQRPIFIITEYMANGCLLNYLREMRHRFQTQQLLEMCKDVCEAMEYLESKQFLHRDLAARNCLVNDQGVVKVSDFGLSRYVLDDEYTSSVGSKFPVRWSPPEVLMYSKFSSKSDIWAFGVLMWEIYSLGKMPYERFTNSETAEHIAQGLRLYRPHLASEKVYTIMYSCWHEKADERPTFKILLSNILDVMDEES

IC50 [1] [µM] | IC50 [2] [µM] | SMILES
< 0.001 | < 1 | Cc1cc(-c2cc(-c3cnn(C)c3)cn3nccc23)ccc1CNC(=O)c1cn(C(C)(C)C)nn1 [Example 66, 1-(tert-butyl)-N-(2-methyl-4-(6-(1-methyl-1H-pyrazol-4-yl)pyrazolo[1,5-a]pyridin-4-yl)benzyl)-1H-1,2,3-triazole-4-carboxamide]
0.001 to 0.01 | 1 to 10 | Cc1cc(-c2nc(-c3cnn(C)c3)cn3nccc23)ccc1CN1CCN(CC(C)(C)C)CC1=O [Example 31, 1-(2-methyl-4-(6-(1-methyl-1H-pyrazol-4-yl)pyrazolo[1,5-a]pyrazin-4-yl)benzyl)-4-neopentylpiperazin-2-one]
0.001 to 0.01 | 1 to 10 | Cn1cc(-c2cn3nccc3c(N3CCC(F)(CNC(=O)c4noc(C5(C)CC5)n4)CC3)n2)cn1 [Example 161, N-((4-fluoro-1-(6-(1-methyl-1H-pyrazol-4-yl)pyrazolo[1,5-a]pyrazin-4-yl)piperidin-4-yl)methyl)-5-(1-methylcyclopropyl)-1,2,4-oxadiazole-3-carboxamide trifluoroacetate]
0.001 to 0.01 | 1 to 10 | Cn1cc(-c2cn3nccc3c(N3CCC(CNC(=O)c4cn(C(C)(C)C)nn4)CC3)n2)cn1 [Example 138, 1-(tert-butyl)-N-((1-(6-(1-methyl-1H-pyrazol-4-yl)pyrazolo[1,5-a]pyrazin-4-yl)piperidin-4-yl)methyl)-1H-1,2,3-triazole-4-carboxamide]
0.01 to 1 | 1 to 10 | Cn1cc(-c2cc3nccn3c(-c3ccc(CNC(=O)c4nnc(C(C)(C)C)o4)cc3)n2)cn1 [Example 61, 5-(tert-butyl)-N-(4-(7-(1-methyl-1H-pyrazol-4-yl)imidazo[1,2-c]pyrimidin-5-yl)benzyl)-1,3,4-oxadiazole-2-carboxamide]
< 0.001 | < 1 | Cc1cc(-c2nc(-c3cnn(C)c3)cn3nccc23)ccc1CNC(=O)c1cnn(C(C)(C)C)c1 [Example 17, 1-(tert-butyl)-N-(2-methyl-4-(6-(1-methyl-1H-pyrazol-4-yl)pyrazolo[1,5-a]pyrazin-4-yl)benzyl)-1H-pyrazole-4-carboxamide]
1 to 10 | 1 to 10 | CC(C)(C)c1nc(C(=O)NCc2ccc(-c3nc(N4CCOCC4)cn4nccc34)cc2)no1 [Example 23, 5-(tert-butyl)-N-(4-(6-morpholinopyrazolo[1,5-a]pyrazin-4-yl)benzyl)-1,2,4-oxadiazole-3-carboxamide]
< 0.001 | < 1 | Cn1cc(-c2cn3nccc3c(-c3ccc(CNC(=O)c4nnn(C(C)(C)C)n4)c(F)c3)n2)cn1 [Example 7, 2-(tert-butyl)-N-(2-fluoro-4-(6-(1-methyl-1H-pyrazol-4-yl)pyrazolo[1,5-a]pyrazin-4-yl)benzyl)-2H-tetrazole-5-carboxamide]
< 0.001 | < 1 | Cn1cc(-c2cn3nccc3c(-c3ccc(CNC(=O)c4coc(C(C)(C)C)n4)c(F)c3)n2)cn1 [Example 12, 2-(tert-butyl)-N-(2-fluoro-4-(6-(1-methyl-1H-pyrazol-4-yl)pyrazolo[1,5-a]pyrazin-4-yl)benzyl)oxazole-4-carboxamide]
0.001 to 0.01 | 1 to 10 | COCCOc1cn2nccc2c(-c2ccc(CNC(=O)c3nc(C4(C)CC4)no3)c(C)c2)n1 [Example 133, N-(4-(6-(2-methoxyethoxy)pyrazolo[1,5-a]pyrazin-4-yl)-2-methylbenzyl)-3-(1-methylcyclopropyl)-1,2,4-oxadiazole-5-carboxamide]
0.01 to 1 | 1 to 10 | Cn1cc(-c2cn3nccc3c(N3CCC(C)(CNC(=O)c4cnc(C(C)(C)C)o4)CC3)n2)cn1 [Example 45, 2-(tert-butyl)-N-((4-methyl-1-(6-(1-methyl-1H-pyrazol-4-yl)pyrazolo[1,5-a]pyrazin-4-yl)piperidin-4-yl)methyl)oxazole-5-carboxamide]
0.001 to 0.01 | 1 to 10 | Cn1cc(-c2cn3nccc3c(N3CCC(F)(CNC(=O)c4noc(C(C)(C)C)n4)CC3)n2)cn1 [Example 160, 5-(tert-butyl)-N-((4-fluoro-1-(6-(1-methyl-1H-pyrazol-4-yl)pyrazolo[1,5-a]pyrazin-4-yl)piperidin-4-yl)methyl)-1,2,4-oxadiazole-3-carboxamide]
< 0.001 | < 1 | Cn1cc(-c2cc3nccn3c(-c3ccc(CNC(=O)c4nnn(C(C)(C)C)n4)cc3)n2)cn1 [Example 58, 2-(tert-butyl)-N-(4-(7-(1-methyl-1H-pyrazol-4-yl)imidazo[1,2-c]pyrimidin-5-yl)benzyl)-2H-tetrazole-5-carboxamide]
< 0.001 | < 1 | Cn1cc(-c2cn3nccc3c(-c3ccc(CNC(=O)c4nnn(C(C)(C)C)n4)c(C(F)F)c3)n2)cn1 [Example 106, 2-(tert-butyl)-N-(2-(difluoromethyl)-4-(6-(1-methyl-1H-pyrazol-4-yl)pyrazolo[1,5-a]pyrazin-4-yl)benzyl)-2H-tetrazole-5-carboxamide]
< 0.001 | < 1 | Cn1cc(-c2cn3nccc3c(-c3ccc(CNC(=O)c4nnn(C(C)(C)C)n4)c(F)c3F)n2)cn1 [Example 87, 2-(tert-butyl)-N-(2,3-difluoro-4-(6-(1-methyl-1H-pyrazol-4-yl)pyrazolo[1,5-a]pyrazin-4-yl)benzyl)-2H-tetrazole-5-carboxamide]
< 0.001 | < 1 | Cn1cc(-c2cn3nccc3c(-c3ccc(CNC(=O)c4nc(C(C)(C)C)no4)cc3)n2)cn1 [Example 19, 3-(tert-butyl)-N-(4-(6-(1-methyl-1H-pyrazol-4-yl)pyrazolo[1,5-a]pyrazin-4-yl)benzyl)-1,2,4-oxadiazole-5-carboxamide]
0.001 to 0.01 | 1 to 10 | Cn1cc(-c2cn3nccc3c(-c3cc(F)c(CNC(=O)c4cnn(C(C)(C)C)n4)cc3F)n2)cn1 [Example 97, 2-(tert-butyl)-N-(2,5-difluoro-4-(6-(1-methyl-1H-pyrazol-4-yl)pyrazolo[1,5-a]pyrazin-4-yl)benzyl)-2H-1,2,3-triazole-4-carboxamide]
< 0.001 | < 1 | Cn1cc(-c2cn3nccc3c(-c3ccc(CNC(=O)c4nc(C(C)(C)CF)no4)c(F)c3)n2)cn1 [Example 13, 3-(1-fluoro-2-methylpropan-2-yl)-N-(2-fluoro-4-(6-(1-methyl-1H-pyrazol-4-yl)pyrazolo[1,5-a]pyrazin-4-yl)benzyl)-1,2,4-oxadiazole-5-carboxamide]
